Measured values as given in patent US20250145628A1, “PYRAZOLOPYRIMIDINES, COMPOSITIONS COMPRISING THEM AND USES THEREOF” (Novo Nordisk A/S, priority 2022, published 2025).
pIC50: −log10 of the molar value.

Key:
human CB1 receptor [1] = biological target: T1, human CB1 receptor (Homo sapiens, UniProt P21554); assay: bioSensAll GAPL-Gi2 BRET biosensor assay (antagonism of CP-55,940); assay type: cell-based; conditions: HEK293 cells transfected with hCB1 and GAPL-Gi2 biosensor, EC75 of CP-55,940 (0.1 nM), overnight incubation, read-out: CB1 wt Gi2 IC50
T1 construct: expressed in transfected cells; host or cells: HEK293
T1 sequence (P21554 whole entry): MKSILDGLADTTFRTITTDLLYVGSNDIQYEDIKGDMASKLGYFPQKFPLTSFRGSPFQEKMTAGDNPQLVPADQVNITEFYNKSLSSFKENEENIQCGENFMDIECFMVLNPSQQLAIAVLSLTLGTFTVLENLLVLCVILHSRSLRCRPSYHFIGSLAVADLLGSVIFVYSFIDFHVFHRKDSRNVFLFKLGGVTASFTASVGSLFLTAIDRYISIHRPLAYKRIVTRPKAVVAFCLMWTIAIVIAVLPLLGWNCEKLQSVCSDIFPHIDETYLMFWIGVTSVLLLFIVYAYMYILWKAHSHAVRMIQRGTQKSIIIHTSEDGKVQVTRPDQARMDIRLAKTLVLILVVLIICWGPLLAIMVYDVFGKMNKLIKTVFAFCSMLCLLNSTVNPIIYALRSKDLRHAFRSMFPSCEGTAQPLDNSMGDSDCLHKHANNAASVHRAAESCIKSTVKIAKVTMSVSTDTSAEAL
Experimental: (§1) Using polyethylenimine (PEI) transfection agent, HEK293 cells were transfected in suspension with the human CB1 or CB1b receptor and one of the following bioSensAll® assays: GAPL-Gi2, or β-arrestin plasma membrane (PM) translocation biosensor (+GRK2). Cells were directly seeded in 96-well plates immediately following transfection.
(§2) Cells were incubated with coelenterazine (luciferase substrate) and different test compounds prior to the measurement of BRET signals.
i) GAPL sensors are used to monitor the activation of heterotrimeric G proteins at the plasma membrane upon receptor stimulation. Specifically, these multimolecular BRET sensors detect the plasma membrane recruitment of proteins that interact with active Ga subunits in a G protein family-selective manner. G protein activation following receptor stimulation generally leads to an increase in the BRET signal.
(§3) HEK293 cells were maintained in Dulbecco's Modified Eagle Medium (DMEM) (Wisent; cat #319-030-CL: without sodium pyruvate, with 4.5 g/L glucose, without L-glutamine) supplemented with 1% penicillin-streptomycin (Wisent; cat #450-201-EL) and 2 or 10% fetal bovine serum (Wisent cat #090150).
(§4) HEK293 cells were co-transfected with hCB1 or hCB1b and one of the above-listed bioSensAll® assays. For each transfection condition: • the total amount of transfected DNA was kept constant at 1 μg per mL of cell culture to be transfected; whenever necessary, salmon sperm DNA (Invitrogen, cat #15632011) was used as ‘carrier’ DNA to supplement plasmid DNA (i.e., biosensor and receptor); • the PEI (polyethylenimine 25 kDa linear, PolyScience, cat #23966) to DNA ratio (ug:ug) was fixed at 3:1.
(§5) Transfections were carried out as follows: • DNA and PEI were first diluted separately in 150 mM NaCl. The volume of the diluent in each tube corresponds to 5% of the cell culture volume to be transfected. • Once DNA and PEI were diluted, the PEI-containing solution was added to the DNA solution and the DNA/PEI mixture immediately vortexed for 5 seconds. • The DNA/PEI mixture was incubated for at least 20 minutes at room temperature to allow for the formation of DNA/PEI complexes. • During the incubation, HEK293 cells were detached, counted and re-suspended in culture medium (composition specified above). • At the end of the incubation period, the DNA/PEI mixture was added to the cells. • Cells were finally distributed in 96-well plates (White Opaque 96-well/Microplates, Greiner, cat #655083 or CulturPlate-96, White Opaque 96-well Microplate, PerkinElmer, cat #6005688) at a density of 30 000 cells per well.
(§6) At ˜48 hours post-transfection: • Using 450-Select TS Biotek plate washer, culture medium was aspirated and replaced with 100 μl of Hank's Balanced Salt Solution buffer (HBSS) (Wisent, cat #319-067CL: without red phenol; with sodium bicarbonate, with calcium and magnesium, with HEPES) per well. This process was performed a total of two times (i.e., 2 washes). • After the washing step, the HP D300 digital dispenser (Tecan) was used to inject increasing doses (12) of test compounds (ranging from 0-600 nM) to wells. Three to five minutes later, an EC75 of CP-55,940 (0.1 nM for GAPL-Gi2 assay; 100 nM for β-arrestin PM translocation biosensor (+GRK2)) was added to columns 2-12 of each 96-well plate.
(§7) BRET signals were determined by calculating the ratio of light emitted by GFP-acceptor (515 nm) over light emitted by luciferase-donor (400 nm). All BRET ratios were standardized using the equation below with pre-established BRET values for positive and negative controls. The standardized BRET ratio is referred to as universal BRET (uBRET).
(§8) Resulting dose-response curves were fitted using the four-parameter logistic non-linear regression model in GraphPad Prism 9.

human CB1 receptor [2] = biological target: T1, human CB1 receptor; assay: bioSensAll β-arrestin plasma membrane translocation BRET biosensor (+GRK2) assay (antagonism of CP-55,940); assay type: cell-based; conditions: HEK293 cells transfected with hCB1 and β-arrestin PM translocation biosensor (+GRK2), EC75 of CP-55,940 (100 nM), overnight incubation, read-out: CB1 wt βarr2 IC50
Experimental: as §1, §2
ii) The multimolecular β-arrestin membrane recruitment biosensors allow for real-time spatio-temporal monitoring of β-arrestin 1 and β-arrestin 2 following GPCR activation. Specifically, these β-arrestin sensors were designed to detect the recruitment of proteins to the plasma membrane (β-arrestin PM) with localization to compartment resulting in an increased BRET signal.
as §3, §4, §5, §6, §7, §8

`CCNC1(C(N)=O)CCN(c2cc(N3CCC[C@H]3CO)nc3c(-c4ccc(Cl)cc4)c(-c4ccccc4Cl)nn23)CC1` [Compound 1, 1-[2-(2-chlorophenyl)-3-(4-chlorophenyl)-5-[(2S)-2-(hydroxymethyl)pyrrolidin-1-yl]pyrazolo[1,5-a]pyrimidin-7-yl]-4-(ethylamino)piperidine-4-carboxamide] was tested. Which pIC50 (human CB1 receptor [1]) did it give?
Its pIC50 is 8.92.

What about the pIC50 (human CB1 receptor [2]) of the same compound?
Its pIC50 is 8.37.

With `OC[C@@H]1CCCN1c1cc(N2CCC(C(F)(F)F)CC2)n2nc(-c3ccccc3Cl)c(-c3ccc(Cl)cc3)c2n1` [Compound 2, [(2S)-1-[2-(2-chlorophenyl)-3-(4-chlorophenyl)-7-[4-(trifluoromethyl)-1-piperidyl]pyrazolo[1,5-a]pyrimidin-5-yl]pyrrolidin-2-yl]methanol] as the compound, how does the pIC50 (human CB1 receptor [1]) read?
The pIC50 was 8.89.

And the pIC50 (human CB1 receptor [2])?
The pIC50 was 8.28.

What does the source list for `COc1ccccc1-c1nn2c(-c3cccc(C#N)c3)cc(N3CCC[C@H]3CO)nc2c1-c1ccc(Cl)cc1` [Compound 3, 3-[3-(4-chlorophenyl)-5-[(2S)-2-(hydroxymethyl)pyrrolidin-1-yl]-2-(2-methoxyphenyl)pyrazolo[1,5-a]pyrimidin-7-yl]benzonitrile]?
pIC50 (human CB1 receptor [1]): 8.75; pIC50 (human CB1 receptor [2]): 8.00

`OC[C@@H]1CCCN1c1cc(-c2ccc(C(F)(F)F)cc2)n2nc(-c3ccccc3Cl)c(-c3ccc(Cl)cc3)c2n1` [Compound 4, [(2S)-1-[2-(2-chlorophenyl)-3-(4-chlorophenyl)-7-[4-(trifluoromethyl)phenyl]pyrazolo[1,5-a]pyrimidin-5-yl]pyrrolidin-2-yl]methanol] was tested. Which pIC50 (human CB1 receptor [1]) did it give?
Its pIC50 is 8.39.

What about the pIC50 (human CB1 receptor [2]) of the same compound?
The pIC50 was 7.97.

How did the pIC50 (human CB1 receptor [1]) turn out when `COc1ccc(-c2cc(N3CCC[C@H]3CO)nc3c(-c4ccc(Cl)cc4)c(-c4ccccc4Cl)nn23)cc1` [Compound 5, [(2S)-1-[2-(2-chlorophenyl)-3-(4-chlorophenyl)-7-(4-methoxyphenyl)pyrazolo-[1,5-a]pyrimidin-5-yl]pyrrolidin-2-yl]methanol] was run?
Its pIC50 is 8.43.

And the pIC50 (human CB1 receptor [2])?
The pIC50 was 8.07.

`COc1ccccc1-c1nn2c(-c3ccc(C(F)(F)F)cc3)cc(N3CCC[C@H]3CO)nc2c1-c1ccc(Cl)cc1` [Compound 6, [(2S)-1-[3-(4-chlorophenyl)-2-(2-methoxyphenyl)-7-[4-(trifluoromethyl)phenyl]pyrazolo[1,5-a]pyrimidin-5-yl]-pyrrolidin-2-yl]methanol] was tested. Which pIC50 (human CB1 receptor [1]) did it give?
The pIC50 was 7.85.

And the pIC50 (human CB1 receptor [2])?
Its pIC50 is 6.84.

How did the pIC50 (human CB1 receptor [1]) turn out when `O=S(=O)(N1CCN(c2cc(N3CCC[C@H]3CO)nc3c(-c4ccc(Cl)cc4)c(-c4ccccc4Cl)nn23)CC1)C(F)(F)F` [Compound 7, [(2S)-1-[2-(2-chlorophenyl)-3-(4-chlorophenyl)-7-[4-(trifluoromethylsulfonyl)piperazin-1-yl]pyrazolo[1,5-a]pyrimidin-5-yl]pyrrolidin-2-yl]methanol] was run?
Its pIC50 is 8.81.

And the pIC50 (human CB1 receptor [2])?
The pIC50 was 8.48.

With `OC[C@@H]1CCCN1c1cc(-c2ccc(C(F)(F)F)nc2)n2nc(-c3ccccc3Cl)c(-c3ccc(Cl)cc3)c2n1` [Compound 8, [(2S)-1-[2-(2-chlorophenyl)-3-(4-chlorophenyl)-7-[6-(trifluoromethyl)-3-pyridyl]pyrazolo[1,5-a]pyrimidin-5-yl]pyrrolidin-2-yl]methanol] as the compound, how does the pIC50 (human CB1 receptor [1]) read?
The pIC50 was 8.74.

And the pIC50 (human CB1 receptor [2])?
Its pIC50 is 8.36.

Which results are given for `CC1(C(N)=O)CCN(c2cc(N3CCC[C@H]3CO)nc3c(-c4ccc(Cl)cc4)c(-c4ccccc4Cl)nn23)CC1` [Compound 9, 1-[2-(2-chlorophenyl)-3-(4-chlorophenyl)-5-[(2S)-2-(hydroxymethyl)pyrrolidin-1-yl]pyrazolo[1,5-a]pyrimidin-7-yl]-4-methyl-piperidine-4-carboxamide]?
pIC50 (human CB1 receptor [1]): 9.45; pIC50 (human CB1 receptor [2]): 8.74

What does the source list for `CN(CCO)c1cc(N2CCC(C)(C(N)=O)CC2)n2nc(-c3ccccc3Cl)c(-c3ccc(Cl)cc3)c2n1` [Compound 10, 1-[2-(2-chlorophenyl)-3-(4-chlorophenyl)-5-[2-hydroxyethyl(methyl)amino]pyrazolo[1,5-a]pyrimidin-7-yl]-4-methyl-piperidine-4-carboxamide]?
pIC50 (human CB1 receptor [1]): 9.59; pIC50 (human CB1 receptor [2]): 8.76

How did the pIC50 (human CB1 receptor [1]) turn out when `O=S1(=O)CCC(Nc2cc(N3CCC[C@H]3CO)nc3c(-c4ccc(Cl)cc4)c(-c4ccccc4Cl)nn23)CC1` [Compound 11, [(2S)-1-[2-(2-chlorophenyl)-3-(4-chlorophenyl)-7-[(1,1-dioxothian-4-yl)amino]pyrazolo[1,5-a]pyrimidin-5-yl]pyrrolidin-2-yl]methanol] was run?
Its pIC50 is 9.32.

And the pIC50 (human CB1 receptor [2])?
The pIC50 was 8.88.

With `CC(C)Oc1cc(N(C)CCO)nc2c(-c3ccc(Cl)cc3)c(-c3ccccc3Cl)nn12` [Compound 12, 2-[[2-(2-chlorophenyl)-3-(4-chlorophenyl)-7-isopropoxy-pyrazolo[1,5-a]pyrimidin-5-yl]-methyl-amino]ethanol] as the compound, how does the pIC50 (human CB1 receptor [1]) read?
The pIC50 was 8.77.

And the pIC50 (human CB1 receptor [2])?
Its pIC50 is 7.77.

With `CC(C)(O)COc1cc(N2CCC(C)(C(N)=O)CC2)n2nc(-c3ccccc3Cl)c(-c3ccc(Cl)cc3)c2n1` [Compound 13, 1-[2-(2-chlorophenyl)-3-(4-chlorophenyl)-5-(2-hydroxy-2-methyl-propoxy)pyrazolo[1,5-a]pyrimidin-7-yl]-4-methyl-piperidine-4-carboxamide] as the compound, how does the pIC50 (human CB1 receptor [1]) read?
Its pIC50 is 8.90.

What about the pIC50 (human CB1 receptor [2]) of the same compound?
The pIC50 was 8.45.

How did the pIC50 (human CB1 receptor [1]) turn out when `CC(C)(O)COc1cc(N2CCC(C)(O)CC2)n2nc(-c3ccccc3Cl)c(-c3ccc(Cl)cc3)c2n1` [Compound 14, 1-[2-(2-chlorophenyl)-3-(4-chlorophenyl)-5-(2-hydroxy-2-methyl-propoxy)pyrazolo[1,5-a]pyrimidin-7-yl]-4-methyl-piperidin-4-ol] was run?
Its pIC50 is 8.60.

What about the pIC50 (human CB1 receptor [2]) of the same compound?
Its pIC50 is 8.03.

How did the pIC50 (human CB1 receptor [1]) turn out when `CC(C)(O)COc1cc(N2CCN(S(=O)(=O)C(F)(F)F)CC2)n2nc(-c3ccccc3Cl)c(-c3ccc(Cl)cc3)c2n1` [Compound 15, 1-[2-(2-chlorophenyl)-3-(4-chlorophenyl)-7-[4-(trifluoromethylsulfonyl)piperazin-1-yl]pyrazolo[1,5-a]pyrimidin-5-yl]oxy-2-methyl-propan-2-ol] was run?
The pIC50 was 8.40.

And the pIC50 (human CB1 receptor [2])?
Its pIC50 is 8.02.

How did the pIC50 (human CB1 receptor [1]) turn out when `CC(C)(O)COc1cc(N2CCN(S(C)(=O)=O)CC2)n2nc(-c3ccccc3Cl)c(-c3ccc(Cl)cc3)c2n1` [Compound 16, 1-[2-(2-chlorophenyl)-3-(4-chlorophenyl)-7-(4-methylsulfonylpiperazin-1-yl)pyrazolo[1,5-a]pyrimidin-5-yl]oxy-2-methyl-propan-2-ol] was run?
The pIC50 was 8.23.

And the pIC50 (human CB1 receptor [2])?
The pIC50 was 7.88.

With `CC(C)(O)COc1cc(N2CCC[C@@H](C(N)=O)C2)n2nc(-c3ccccc3Cl)c(-c3ccc(Cl)cc3)c2n1` [Compound 17(R), 1-[2-(2-chlorophenyl)-3-(4-chlorophenyl)-5-(2-hydroxy-2-methyl-propoxy)pyrazolo[1,5-a]pyrimidin-7-yl]piperidine-3-carboxamide] as the compound, how does the pIC50 (human CB1 receptor [1]) read?
The pIC50 was 7.77.

What about the pIC50 (human CB1 receptor [2]) of the same compound?
The pIC50 was 7.30.

How did the pIC50 (human CB1 receptor [1]) turn out when `CC(C)(O)COc1cc(N2CCC[C@H](C(N)=O)C2)n2nc(-c3ccccc3Cl)c(-c3ccc(Cl)cc3)c2n1` [Compound 17(S), (3S)-1-[2-(2-chlorophenyl)-3-(4-chlorophenyl)-5-(2-hydroxy-2-methyl-propoxy)pyrazolo[1,5-a]pyrimidin-7-yl]piperidine-3-carboxamide] was run?
The pIC50 was 8.04.

What about the pIC50 (human CB1 receptor [2]) of the same compound?
Its pIC50 is 7.39.
